One compound from US20170002385A1, “USING CELL DEBRIS GENERATED FROM PHA RECOVERY FOR ENHANCED CELL GROWTH AND BIOPOLYESTER FORMATION” (BIO ON S.r.l., priority 2009, published 2017) can be followed below.

The assay has as its system PHA-producing microbial cells. Kind of assay: flask cultures: effect of cell debris solutions and SDS on cell growth and PHA formation. Format: cell-based. The conditions noted are these: for Cell mass: 12 g/L glucose. On the procedure:
Starting with cell mass of high PHA content (72% w/w), production of 1 kg of PHA, in a purity of 96.4 w/w, generates about 0.45 kg of cell debris as shown in the scheme reported above. Disposal of this large amount of waste in aqueous solution is a task of high cost, but could be avoided with additional benefit if the cell debris could be reused in PHA fermentation. In order to reveal the effect of cell debris on cell growth and PHA formation, microbial cultures were conducted in 500 mL flasks in parallel. The flask cultures were set up with the same glucose concentrations (10-20 g/L), the same volume of mineral solution (160 mL) as shown in Table 1 reported hereinbelow, and the same inoculum and size. After predetermined amount of cell debris solutions were added, the total volume of flask cultures was raised to 200 mL by adding pre-sterilized distilled and deionized water. The flasks were shaken at 200 rpm and 30 ° C. in a rotary incubator for 24 or 48 hours. The cell mass concentration and PHA content were determined as described in the literature (see Jian Yu and Lilian X. L. Chen (2006), “Cost-effective recovery and purification of polyhydroxyalkanoates by selective dissolution of cell mass”, Biotechnology Progress, 22:547-553). […]
Surfactants such as SDS are optionally used in PHA recovery to disrupt cells and remove lipids and pigments from polyesters. They are soluble and left in the cell debris solutions, which may cause adverse effect on cell growth when the cell debris solution is reused in PHA fermentation. An acid-base cell debris solution containing 48.5 g/L of soluble solids and 5 g/L of SDS was used in this case. In the same flask cultures above (12 g/L of glucose), 8 mL of ABCDS was added to give 1.94 g/L of cell debris and 0.2 g/L of SDS. Additional SDS was also added to increase SDS concentration to 0.4, 0.6 and 0.8 g/L. Table 4 gives the results of cell growth and PHA formation at different surfactant levels. […] The benefit of cell debris at low SDS concentration (0.2-0.4 g/L) leads to 200-300% of increase in PHA concentration in comparison with the control.

Where “and” joins values, the source holds several entries; their conditions need not be identical. Identical values can stand only once.

Regarding `CCCCCCCCCCCCOS(=O)(=O)[O-].[Na+]` [SDS, sodium dodecyl sulfate], the “PHA formation vs control without cell debris and surfactant” value is, setting by setting: (SDS 0.2-0.6 g/L with 1.94 g/L cell debris) “enhanced”; (SDS 0.8 g/L with 1.94 g/L cell debris) “damaged to a great extent”. Further, the Cell mass by setting is: (SDS 0.2 g/L with 1.94 g/L cell debris (ABCDS), 24 hours) 3.69 g/L; (SDS 0.2 g/L with 1.94 g/L cell debris (ABCDS), 48 hours) 4.99 g/L; (SDS 0.4 g/L with 1.94 g/L cell debris (ABCDS), 24 hours, sulfate) 3.22 g/L and 3.33 g/L; (SDS 0.4 g/L with 1.94 g/L cell debris (ABCDS), 48 hours, sulfate) 4.46 g/L and 4.62 g/L; (SDS 0.6 g/L with 1.94 g/L cell debris (ABCDS), 24 hours) 2.70 g/L; (SDS 0.6 g/L with 1.94 g/L cell debris (ABCDS), 48 hours) 3.51 g/L. Further, the Cell mass was 2.59 g/L (SDS 0.8 g/L with 1.94 g/L cell debris (ABCDS), 24 hours) and 3.54 g/L (SDS 0.8 g/L with 1.94 g/L cell debris (ABCDS), 48 hours).
